Measured values from patent US20200060276A1, “THIAZOLE COMPOUND AND HERBICIDE” (OAT Agrio Co., Ltd., priority 2017, published 2020).

Experiments:
Format in all cases: in vivo
[1] = tested on: Echinochloa crus-galli (L.) P. Beauv. var. formosensis Ohwi; assay: Test for Herbicidal Effect in Flooding Treatment (#1), ECHDG; conditions: flooding treatment at seeding, dose 2 kg/ha, visual observation on day 21
Method in brief: (§1)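 Visual scores from 0 (<10% inhibition) to 5 (≥90% or complete withering) were taken 21 days after treatment of glasshouse-grown plants. Seeds were sown in soil flooded for 24 h beforehand, and compound was applied dropwise onto the surface at 2 kg/ha as an acetone solution diluted in water with Tween 80.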

[2] = tested on: Scirpus juncoides; assay: Test for Herbicidal Effect in Flooding Treatment (#1), SCIJU; conditions: flooding treatment at seeding, dose 2 kg/ha, visual observation on day 21
Method in brief: as §1

[3] = tested on: Cyperus microiria; assay: Test for Herbicidal Effect in Flooding Treatment (#1), CYMIC; conditions: flooding treatment at seeding, dose 2 kg/ha, visual observation on day 21
Description: (#1) Test for Herbicidal Effect in Flooding Treatment: Styrol cups each having an opening diameter of 8 cm (about 52 cm^2) were respectively filled with soil (45 ml) which had been passed through a sieve (2 mm). Water (about 115 ml) was mixed with the soil such that the soil was flooded. After the soil stood still for 24 hours, Monochoria vaginalis, Echinochloa crus-galli (L.) P. Beauv. var. formosensis Ohwi, Cyperus difformis (umbrella sedge), and Scirpus juncoides were seeded. Each of the compounds of the present invention was dissolved in acetone, and the obtained product was then diluted with water containing Tween 80®. Each of the resultant chemical solutions was dropped on the entire surface of an associated one of treatment sections, so that each section was treated with 1 ml of the respective chemical solution (a dose of 2 kg/ha). After the treatment, the plants were grown in a glasshouse. On day 21, a survey was conducted on the herbicidal activity by visual observation, and evaluation was made according to the following criteria. 0: Growth inhibition effect is less than 10%. 1: Growth inhibition effect is equal to or greater than 10%, and less than 30%. 2; Growth inhibition effect is equal to or greater than 30%, and less than 50%. 3: Growth inhibition effect equal to or greater than 50%, and less than 70%. 4: Growth inhibition effect is equal to or greater than 70%, and less than 90%. 5: Growth inhibition effect is equal to or greater than 90%, or complete withering is achieved. ECHDG=Echinochloa crus-galli (L.) P. Beauv. var. formosensis Ohwi, MONVA=Monochoria vaginalis, SCIJU=Scirpus juncoides, CYMIC=Cyperus microiria.

[4] = tested on: Echinochloa crus-galli (L.) P. Beauv. var. formosensis Ohwi; assay: Test for Herbicidal Effect in Flooding Treatment (#2), ECHDG at 2-2.5 leaf stage; conditions: for ECHDG (2-2.5L) #2 herbicidal effect (growth inhibition grade): flooding treatment at 2-2.5 leaf stage, dose 0.2 kg/ha, visual observation on day 21
Method in brief: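 Flooded muddy soil was seeded with the weed, and at 2–2.5 leaf stage compound in acetone/Tween 80 water was dropped on the water surface at 0.2 kg/ha. Plants were kept in a glasshouse and scored visually on day 21 from 0 (<10% growth inhibition) to 5 (≥90% or complete withering).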

## CCOc1ccc(Br)cc1CS(=O)(=O)c1ncc(Cl)s1 [Compound 1C-17]
[1]
  ECHDG #1 herbicidal effect (growth inhibition grade): 5 (Growth inhibition effect is equal to or greater than 90%, or complete withering is achieved)
[2]
  SCIJU #1 herbicidal effect (growth inhibition grade): 5 (Growth inhibition effect is equal to or greater than 90%, or complete withering is achieved)
[3]
  CYMIC #1 herbicidal effect (growth inhibition grade): 5 (Growth inhibition effect is equal to or greater than 90%, or complete withering is achieved)
[4]
  ECHDG (2-2.5L) #2 herbicidal effect (growth inhibition grade): 5 (Growth inhibition effect is equal to or greater than 90%, or complete withering is achieved)

## CCOc1ccc(C)cc1CS(=O)(=O)c1ncc(Cl)s1 [Compound 1C-18]
[1]
  ECHDG #1 herbicidal effect (growth inhibition grade): 5 (Growth inhibition effect is equal to or greater than 90%, or complete withering is achieved)
[2]
  SCIJU #1 herbicidal effect (growth inhibition grade): 5 (Growth inhibition effect is equal to or greater than 90%, or complete withering is achieved)
[3]
  CYMIC #1 herbicidal effect (growth inhibition grade): 5 (Growth inhibition effect is equal to or greater than 90%, or complete withering is achieved)
[4]
  ECHDG (2-2.5L) #2 herbicidal effect (growth inhibition grade): 5 (Growth inhibition effect is equal to or greater than 90%, or complete withering is achieved)

## CCOc1cccc(Cl)c1CS(=O)(=O)c1ncc(Cl)s1 [Compound 1C-20]
[1]
  ECHDG #1 herbicidal effect (growth inhibition grade): 5 (Growth inhibition effect is equal to or greater than 90%, or complete withering is achieved)
[2]
  SCIJU #1 herbicidal effect (growth inhibition grade): 5 (Growth inhibition effect is equal to or greater than 90%, or complete withering is achieved)
[3]
  CYMIC #1 herbicidal effect (growth inhibition grade): 5 (Growth inhibition effect is equal to or greater than 90%, or complete withering is achieved)
[4]; Echinochloa crus-galli, 504 h, flooding treatment (#2), ECHDG at 2-2.5 leaf stage, dose of 0.2 kg/ha, day 21, visual observation, read-out: growth inhibition effect
  inhibition at 200 g/ha: ≥ 90%
[4]
  ECHDG (2-2.5L) #2 herbicidal effect (growth inhibition grade): 5 (Growth inhibition effect is equal to or greater than 90%, or complete withering is achieved)

## CCOc1c(Br)cc(Cl)cc1CS(=O)(=O)c1ncc(Cl)s1 [Compound 1C-24]
[1]
  ECHDG #1 herbicidal effect (growth inhibition grade): 5 (Growth inhibition effect is equal to or greater than 90%, or complete withering is achieved)
[2]
  SCIJU #1 herbicidal effect (growth inhibition grade): 5 (Growth inhibition effect is equal to or greater than 90%, or complete withering is achieved)
[3]
  CYMIC #1 herbicidal effect (growth inhibition grade): 5 (Growth inhibition effect is equal to or greater than 90%, or complete withering is achieved)
[4]
  ECHDG (2-2.5L) #2 herbicidal effect (growth inhibition grade): 5 (Growth inhibition effect is equal to or greater than 90%, or complete withering is achieved)

## CCOc1c(Cl)cc(Cl)c(Cl)c1CS(=O)(=O)c1ncc(Cl)s1 [Compound 1C-34]
[1]
  ECHDG #1 herbicidal effect (growth inhibition grade): 5 (Growth inhibition effect is equal to or greater than 90%, or complete withering is achieved)
[2]
  SCIJU #1 herbicidal effect (growth inhibition grade): 5 (Growth inhibition effect is equal to or greater than 90%, or complete withering is achieved)
[3]
  CYMIC #1 herbicidal effect (growth inhibition grade): 5 (Growth inhibition effect is equal to or greater than 90%, or complete withering is achieved)
[4]
  ECHDG (2-2.5L) #2 herbicidal effect (growth inhibition grade): 4 (Growth inhibition effect is equal to or greater than 70%, and less than 90%)

## O=S(=O)(Cc1ccccc1OC(F)(F)F)c1ncc(Cl)s1 [Compound 1C-46]
[1]
  ECHDG #1 herbicidal effect (growth inhibition grade): 5 (Growth inhibition effect is equal to or greater than 90%, or complete withering is achieved)
[2]
  SCIJU #1 herbicidal effect (growth inhibition grade): 5 (Growth inhibition effect is equal to or greater than 90%, or complete withering is achieved)
[3]
  CYMIC #1 herbicidal effect (growth inhibition grade): 5 (Growth inhibition effect is equal to or greater than 90%, or complete withering is achieved)
[4]
  ECHDG (2-2.5L) #2 herbicidal effect (growth inhibition grade): 5 (Growth inhibition effect is equal to or greater than 90%, or complete withering is achieved)

## COc1cccc(CS(=O)(=O)c2ncc(Cl)s2)c1C [Compound 1C-67]
[1]
  ECHDG #1 herbicidal effect (growth inhibition grade): 5 (Growth inhibition effect is equal to or greater than 90%, or complete withering is achieved)
[2]
  SCIJU #1 herbicidal effect (growth inhibition grade): 5 (Growth inhibition effect is equal to or greater than 90%, or complete withering is achieved)
[3]
  CYMIC #1 herbicidal effect (growth inhibition grade): 5 (Growth inhibition effect is equal to or greater than 90%, or complete withering is achieved)
[4]
  ECHDG (2-2.5L) #2 herbicidal effect (growth inhibition grade): 5 (Growth inhibition effect is equal to or greater than 90%, or complete withering is achieved)

## COc1cc(CS(=O)(=O)c2ncc(Cl)s2)ccc1C [Compound 1C-68]
[1]
  ECHDG #1 herbicidal effect (growth inhibition grade): 5 (Growth inhibition effect is equal to or greater than 90%, or complete withering is achieved)
[2]
  SCIJU #1 herbicidal effect (growth inhibition grade): 5 (Growth inhibition effect is equal to or greater than 90%, or complete withering is achieved)
[3]
  CYMIC #1 herbicidal effect (growth inhibition grade): 5 (Growth inhibition effect is equal to or greater than 90%, or complete withering is achieved)
[4]
  ECHDG (2-2.5L) #2 herbicidal effect (growth inhibition grade): 4 (Growth inhibition effect is equal to or greater than 70%, and less than 90%)

## COc1ccc(Cl)c(CS(=O)(=O)c2ncc(Cl)s2)c1F [Compound 1C-71]
[1]
  ECHDG #1 herbicidal effect (growth inhibition grade): 5 (Growth inhibition effect is equal to or greater than 90%, or complete withering is achieved)
[2]
  SCIJU #1 herbicidal effect (growth inhibition grade): 5 (Growth inhibition effect is equal to or greater than 90%, or complete withering is achieved)
[3]
  CYMIC #1 herbicidal effect (growth inhibition grade): 5 (Growth inhibition effect is equal to or greater than 90%, or complete withering is achieved)
[4]
  ECHDG (2-2.5L) #2 herbicidal effect (growth inhibition grade): 5 (Growth inhibition effect is equal to or greater than 90%, or complete withering is achieved)

## COc1ccc(F)c(CS(=O)(=O)c2ncc(Cl)s2)c1Cl [Compound 1C-72]
[1]
  ECHDG #1 herbicidal effect (growth inhibition grade): 5 (Growth inhibition effect is equal to or greater than 90%, or complete withering is achieved)
[2]
  SCIJU #1 herbicidal effect (growth inhibition grade): 5 (Growth inhibition effect is equal to or greater than 90%, or complete withering is achieved)
[3]
  CYMIC #1 herbicidal effect (growth inhibition grade): 5 (Growth inhibition effect is equal to or greater than 90%, or complete withering is achieved)
[4]
  ECHDG (2-2.5L) #2 herbicidal effect (growth inhibition grade): 5 (Growth inhibition effect is equal to or greater than 90%, or complete withering is achieved)

## COc1c(F)c(F)cc(CS(=O)(=O)c2ncc(Cl)s2)c1F [Compound 1C-74]
[1]
  ECHDG #1 herbicidal effect (growth inhibition grade): 5 (Growth inhibition effect is equal to or greater than 90%, or complete withering is achieved)
[2]
  SCIJU #1 herbicidal effect (growth inhibition grade): 5 (Growth inhibition effect is equal to or greater than 90%, or complete withering is achieved)
[3]
  CYMIC #1 herbicidal effect (growth inhibition grade): 5 (Growth inhibition effect is equal to or greater than 90%, or complete withering is achieved)
[4]
  ECHDG (2-2.5L) #2 herbicidal effect (growth inhibition grade): 3 (Growth inhibition effect equal to or greater than 50%, and less than 70%)
